The source of these data is patent EP4461368A1, “5H-PYRROLO[3,2-B:5,4-C']DIPYRIDINE DERIVATIVES AND 6,7,8,9-TETRAHYDRO-5H-PYRROLO[3,2-B:5,4-C']DIPYRIDINE DERIVATIVES USEFUL IN THE TREATMENT OF CANCER” (Institut Regional du Cancer de Montpellier, priority 2023, dated 2024).

Some results are limits rather than exact numbers.

Assay type in all cases: cell-based
One experiment addresses T1, Chromatin-MDM2 (Homo sapiens, UniProt Q00987).
T1 construct: endogenous in cells; host or cells: IB111 liposarcoma cells
Description: MDM2 degradation by western blot and immunofluorescence, chromatin-bound MDM2. The settings on record: degradation efficacy, cells collected 18 hours after compound addition. The method, then: (§1) MDM2 degradation is measured by western blot and immunofluorescence.
(§2) Cells were seeded in 6-well plates (Sarsted) in complete DMEM medium as to obtain triplicates for each condition (500 000 cells/well). After 24 hours, the compounds were added to the cells. Then, 18 hours later cells were collected for western blotting or immunofluorescence. • Western Blot: Cells were collected in Laemmli buffer, boiled and analyzed in 8% acrylamide gel. • Immunofluorescence: Cancer cells were fixed with paraformaldehyde (PFA) 4% for 15 minutes then permeabilized for 15 minutes at RT with phosphate-buffered saline (PBS) Triton 0.1% and blocked with Phosphate buffered saline-[…] (PBS-BSA) 0.3% for 1 hour at RT before overnight incubation at 4 °C with an anti- mouse monoclonal antibody against MDM2 (MABE340 Millipore). Immunodetection was performed using an Alexa 488-conjugated anti-mouse IgG antibody (Thermo Fisher) for 45 minutes at RT. Cover glasses were mounted with Mowiol (Biovalley) and DAPI (Sigma) before analysis on a Zeiss apotome.

The next experiment has as its target T2, Cytoplasmic- MDM2 (Homo sapiens, UniProt Q00987).
T2 construct: endogenous in cells; host or cells: hPac / ZR75.1 cancer cells
Description: MDM2 degradation by western blot and immunofluorescence, cytoplasmic MDM2. The settings on record: degradation efficacy, cells collected 18 hours after compound addition. The method, then: as §1, §2

Experiment [1] concerns cancer cells exhibiting recruitment of MDM2 to chromatin (IB111). In words: Cell survival, Sulforhodamine B assay (SRB assay), cells with recruitment of MDM2 to chromatin. The method, then: (§3) Cell survival after MDM2 inhibitor treatment (IC50) was determined using the Sulforhodamine B assay (SRB assay).
(§4) Cells were seeded in 96-well plates (Sarsted) in complete DMEM medium as to obtain triplicates for each condition (5 000 cells/well). After 24 hours, serial dilutions of the indicated compounds were added to the cells. […] Fixed SRB was finally dissolved in 10 mM Tris-HCl solution and 560nm absorbance was read using a PHERAstar FSX plate reader.
Background: Sulforhodamine B stains cellular protein and so reports cell mass.

The test system of experiment [2] is cancer cells not exhibiting recruitment of MDM2 to chromatin (Hpac/ZR75.1). In words: Cell survival, Sulforhodamine B assay (SRB assay), cells without recruitment of MDM2 to chromatin. The settings on record: Hpac/ZR75.1 cells, treated for 72 hours with increasing concentrations. The procedure: as §3, §4
[3] abbreviates: treated with increasing concentrations.

T1 sequence (Q00987 whole entry): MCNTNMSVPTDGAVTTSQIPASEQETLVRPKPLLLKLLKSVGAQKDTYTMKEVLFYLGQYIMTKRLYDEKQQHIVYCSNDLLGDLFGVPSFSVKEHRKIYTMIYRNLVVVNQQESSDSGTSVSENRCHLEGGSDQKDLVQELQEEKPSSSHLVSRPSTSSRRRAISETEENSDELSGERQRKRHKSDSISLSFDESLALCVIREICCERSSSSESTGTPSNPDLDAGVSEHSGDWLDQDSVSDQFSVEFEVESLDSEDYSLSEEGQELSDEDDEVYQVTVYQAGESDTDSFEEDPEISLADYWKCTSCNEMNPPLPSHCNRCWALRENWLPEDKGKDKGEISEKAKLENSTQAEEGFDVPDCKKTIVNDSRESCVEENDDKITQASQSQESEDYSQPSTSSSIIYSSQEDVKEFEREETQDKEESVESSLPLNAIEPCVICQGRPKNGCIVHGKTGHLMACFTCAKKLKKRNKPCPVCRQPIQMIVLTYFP
T2 sequence (Q00987 whole entry): as above

Regarding “2-methoxy-6-(5,6,7,8-tetrahydronaphthalen-1-yl)-5H-pyrrolo[3,2-b:5,4-c'] dipyridine [Compound 14]”, the Chromatin-MDM2 degradation entry on Chromatin-MDM2 is on record as “+++ (+++ ≥ 80%)”. For the same compound, on Cytoplasmic- MDM2, the “Cytoplasmic- MDM2 degradation” value is on record as “- (<25%: no degradation: indicated "-" in the table)”. In addition, in experiment [1] (treated for 72 hours with increasing concentrations), the IC50 (as a rule, the midpoint of a concentration-inhibition curve) is under 0.5 µM. The “efficiency on cancer cells not exhibiting recruitment of MDM2 to chromatin” value in experiment [2] was “not efficient”.

Turning to `COc1ccc2[nH]c3c(-c4cccc5ccccc45)nccc3c2n1` [Compound 1, 2-methoxy-6-(naphthalen-1-yl)-5H-pyrrolo[3,2-b:5,4-c']dipyridine], the Chromatin-MDM2 degradation result at Chromatin-MDM2 is “+++ (+++ ≥ 80%)”. Besides, the “Cytoplasmic- MDM2 degradation” value on Cytoplasmic- MDM2 is “- (<25%: no degradation: indicated "-" in the table)”. The compound also returned an IC50 in experiment [1] (setting [3]) of under 0.5 µM. Besides, the “efficiency on cancer cells not exhibiting recruitment of MDM2 to chromatin” value in experiment [2] was “not efficient”.

For `COc1ccc2[nH]c3c(-c4ccnc5nccnc45)nccc3c2n1` [Compound 3, 2-methoxy-6-(pyrido[2,3-b]pyrazin-8-yl)-5H-pyrrolo[3,2-b:5,4-c'] dipyridine], the Chromatin-MDM2 degradation result at Chromatin-MDM2 is “+ (25%≤+<40%)”. Besides, the “Cytoplasmic- MDM2 degradation” value on Cytoplasmic- MDM2 is listed as “- (<25%: no degradation: indicated "-" in the table)”.

On to `COc1ccc2[nH]c3c(-c4cccc5ccccc45)nccc3c2n1.Cl` [Compound 4, 2-methoxy-6-(naphthalen-1-yl)-5H-pyrrolo[3,2-b:5,4-c']dipyridine hydrochloride], for which, at Chromatin-MDM2, the Chromatin-MDM2 degradation entry is on record as “+++ (+++ ≥ 80%)”. For the same compound, the “Cytoplasmic- MDM2 degradation” value at Cytoplasmic- MDM2 is recorded as “- (<25%: no degradation: indicated "-" in the table)”. In experiment [2], the “efficiency on cancer cells not exhibiting recruitment of MDM2 to chromatin” value is given as “not efficient”.

Turning to `COc1ccc2[nH]c3c(-c4ccnc5ccccc45)nccc3c2n1` [Compound 6, 2-methoxy-6-(quinolin-4-yl)-5H-pyrrolo[3,2-b:5,4-c']dipyridine], the Chromatin-MDM2 degradation entry at Chromatin-MDM2 is listed as “+ (25%≤+<40%)”. Moreover, the “Cytoplasmic- MDM2 degradation” value at Cytoplasmic- MDM2 is recorded as “- (<25%: no degradation: indicated "-" in the table)”.

In the case of `COc1ccc2[nH]c3c(-c4cccc5ccccc45)nccc3c2n1.O=C(O)/C=C/C(=O)O` [Compound 10, 2-methoxy-6-(naphthalen-1-yl)-5H-pyrrolo[3,2-b:5,4-c']dipyridine fumarate], the Chromatin-MDM2 degradation entry on Chromatin-MDM2 is given as “+++ (+++ ≥ 80%)”. Also, the “Cytoplasmic- MDM2 degradation” value at Cytoplasmic- MDM2 is “- (<25%: no degradation: indicated "-" in the table)”. For the same compound, in experiment [2], the “efficiency on cancer cells not exhibiting recruitment of MDM2 to chromatin” value is “not efficient”.

With `COc1ccc2[nH]c3c(-c4cccc5ccccc45)nccc3c2n1.O=C(O)CC(O)(CC(=O)O)C(=O)O` [Compound 11, 2-methoxy-6-(naphthalen-1-yl)-5H-pyrrolo[3,2-b:5,4-c']dipyridine 2-hydroxypropane-1,2,3-tricarboxylate], the Chromatin-MDM2 degradation result on Chromatin-MDM2 is listed as “+++ (+++ ≥ 80%)”. Further, at Cytoplasmic- MDM2, the “Cytoplasmic- MDM2 degradation” value was “- (<25%: no degradation: indicated "-" in the table)”. Further, the “efficiency on cancer cells not exhibiting recruitment of MDM2 to chromatin” value in experiment [2] is “not efficient”.

For `COc1ccc2[nH]c3c(-c4cccc5ccccc45)nccc3c2n1.O=P(O)(O)O` [Compound 12, 2-methoxy-6-(naphthalen-1-yl)-5H-pyrrolo[3,2-b:5,4-c']dipyridine phosphate], the Chromatin-MDM2 degradation entry on Chromatin-MDM2 is recorded as “++ (40%≤++<80%)”. Further, the “Cytoplasmic- MDM2 degradation” value on Cytoplasmic- MDM2 is on record as “- (<25%: no degradation: indicated "-" in the table)”. Besides, in experiment [2], the “efficiency on cancer cells not exhibiting recruitment of MDM2 to chromatin” value is “not efficient”.

Take `COc1ccc2[nH]c3c(-c4cccc5ccccc45)nccc3c2n1.O=S(=O)(O)O` [Compound 13, 2-methoxy-6-(naphthalen-1-yl)-5H-pyrrolo[3,2-b:5,4-c']dipyridine sulfate]: at Chromatin-MDM2, the Chromatin-MDM2 degradation entry is “++ (40%≤++<80%)”. Also, at Cytoplasmic- MDM2, the “Cytoplasmic- MDM2 degradation” value is given as “- (<25%: no degradation: indicated "-" in the table)”. Further, the “efficiency on cancer cells not exhibiting recruitment of MDM2 to chromatin” value in experiment [2] is recorded as “not efficient”.

Take `COc1ccc2[nH]c3c(-c4ccc(F)c5ccccc45)nccc3c2n1` [Compound 15, 6-(4-fluoronaphthalen-1-yl)-2-methoxy-5H-pyrrolo [3,2-b: 5,4-c'] dipyridine]: the Chromatin-MDM2 degradation entry at Chromatin-MDM2 is on record as “++ (40%≤++<80%)”. Also, the “Cytoplasmic- MDM2 degradation” value on Cytoplasmic- MDM2 is listed as “- (<25%: no degradation: indicated "-" in the table)”. The IC50 in experiment [1] (setting [3]) was under 0.5 µM. In addition, the “efficiency on cancer cells not exhibiting recruitment of MDM2 to chromatin” value in experiment [2] is “not efficient”.

As for `COc1ccc2[nH]c3c(-c4cccc5c4CCCC5)nccc3c2n1.Cl` [Compound 16, 2-methoxy-6-(5,6,7,8-tetrahydronaphthalen-1-yl)-5H-pyrrolo[3,2-b:5,4-c']dipyridine hydrochloride], at Chromatin-MDM2, the Chromatin-MDM2 degradation result is “+++ (+++ ≥ 80%)”. At Cytoplasmic- MDM2, the “Cytoplasmic- MDM2 degradation” value is on record as “- (<25%: no degradation: indicated "-" in the table)”. For the same compound, the IC50 in experiment [1] (setting [3]) was under 0.5 µM. Moreover, the “efficiency on cancer cells not exhibiting recruitment of MDM2 to chromatin” value in experiment [2] is “not efficient”.

Take `COc1ccc2[nH]c3c(-c4ccc(F)c5ccccc45)nccc3c2n1.Cl` [Compound 17, 6-(4-fluoronaphthalen-1-yl)-2-methoxy-5H-pyrrolo [3,2-b: 5,4-c']dipyridine hydrochloride]: the Chromatin-MDM2 degradation result at Chromatin-MDM2 is listed as “+ (25%≤+<40%)”. Also, the “Cytoplasmic- MDM2 degradation” value at Cytoplasmic- MDM2 was “- (<25%: no degradation: indicated "-" in the table)”.
